# Assay: Stability of the five analytes in rat plasma
# Type: in vitro ADME
# Conditions: rat plasma, n = 6; for Long-term stability, Mean: 4 weeks at −80 °C; for Short-term stability, Mean: 5 h at room temperature (25 °C); for Auto-sampler stability, Mean: 24 h in the autosampler at 4 °C; for Freeze-thaw stability, Mean: three freeze-thaw cycles from −20 °C to room temperature
# Procedure: Stock standards of A5, A6, DSS, TFSA, TMCA and IS were prepared in methanol at a concentration of 1 mg/mL. A series of working standard solutions of the targeted compounds ranging from 10 to 20,000 ng/mL and the IS solution at 600 ng/mL were prepared by diluting the stock solutions with methanol and maintained at −20 °C. Calibration standards were freshly prepared by spiking the series of standard solutions (30 μL) including the IS into blank rat plasma (270 μL) to achieve concentrations of 1, 10, 50, 100, 500, 1000, 1600 and 2000 ng/mL. Quality control (QC) samples were prepared independently at low (2 ng/mL), medium (600 ng/mL) and high (1600 ng/mL) concentrations following the same method for the five compounds.
# Stability studies included short-term stability (5 h at room temperature, i.e. 25 °C), freeze-thaw stability (three consecutive freeze-thaw cycles from −20 °C to room temperature), autosampler stability (24 h storage in the autosampler at 4 °C) and long-term stability (4 weeks storage at −80 °C). The stability data of all analytes are presented in Supplementary Table S4.
smiles,measurement,setting,value
"COc1cc(C=CC(=O)O)cc(OC)c1OC [TMCA, 3,4,5-trimethoxycinnamic acid]","Long-term stability, Mean",2 ng/mL,98.3%
same,"Short-term stability, Mean",2 ng/mL,96.2%
same,"Auto-sampler stability, Mean",2 ng/mL,96.3%
same,"Freeze-thaw stability, Mean",2 ng/mL,95.3%
same,"Long-term stability, Mean",600 ng/mL,95.5%
same,"Short-term stability, Mean",600 ng/mL,98.3%
same,"Auto-sampler stability, Mean",600 ng/mL,99.8%
same,"Freeze-thaw stability, Mean",600 ng/mL,97.3%
same,"Long-term stability, Mean",1600 ng/mL,95.8%
same,"Short-term stability, Mean",1600 ng/mL,102.5%
same,"Auto-sampler stability, Mean",1600 ng/mL,99.5%
same,"Freeze-thaw stability, Mean",1600 ng/mL,98.8%

# Source: paper PMC7534330, “UHPLC-MS/MS method for pharmacokinetic and bioavailability determination of five bioactive components in raw and various processed products of Polygala tenuifolia in rat plasma” (Pharmaceutical Biology, 2020)
